Measured values published in ChEMBL document CHEMBL5131442, “Design and synthesis of Osthole-based compounds as potential Nrf2 agonists” (Bioorg Med Chem Lett, 2022).
The source made the active and inactive calls. The calls are words filed in the database; no cut-off is given here.

molecular target: T1, Nuclear factor erythroid 2-related factor 2 (Homo sapiens, UniProt Q16236); assay: Activation of Nrf2 in HEK293T cells; type: cell-based; details: not given
T1 sequence (Q16236 whole entry): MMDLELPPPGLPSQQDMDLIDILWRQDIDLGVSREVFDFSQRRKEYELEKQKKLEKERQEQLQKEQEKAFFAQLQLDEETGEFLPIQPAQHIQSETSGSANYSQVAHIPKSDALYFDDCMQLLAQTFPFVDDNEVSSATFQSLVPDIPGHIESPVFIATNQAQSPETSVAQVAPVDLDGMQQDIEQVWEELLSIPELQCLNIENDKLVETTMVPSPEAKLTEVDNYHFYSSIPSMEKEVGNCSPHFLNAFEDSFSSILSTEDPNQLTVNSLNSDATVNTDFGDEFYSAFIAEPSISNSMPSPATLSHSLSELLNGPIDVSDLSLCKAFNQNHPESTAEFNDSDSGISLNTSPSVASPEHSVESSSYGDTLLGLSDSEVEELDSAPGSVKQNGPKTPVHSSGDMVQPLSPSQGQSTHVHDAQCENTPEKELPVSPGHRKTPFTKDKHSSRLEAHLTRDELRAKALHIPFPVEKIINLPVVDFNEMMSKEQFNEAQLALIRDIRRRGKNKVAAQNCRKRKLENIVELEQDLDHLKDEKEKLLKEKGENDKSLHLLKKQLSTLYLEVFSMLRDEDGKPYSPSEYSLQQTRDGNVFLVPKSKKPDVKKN

| EC50 [µM] | Structure (SMILES) |
| --- | --- |
| 4.55 | CC1(C)CCc2c(c(Br)cc3cc(-c4ccc(C(F)(F)F)cc4)c(=O)oc23)O1 |
| 2.9 | CC1(C)CCc2c(c(Br)cc3cc(-c4ccccc4)c(=O)oc23)O1 |

molecular target: Kelch-like ECH-associated protein 1 (Homo sapiens) (UniProt Q14145); assay: Binding affinity to Keap1 in human A549 cells assessed as thermal stabilization by measuring change in melting temperature at 10 uM by cellular thermal shift assay; type: cell-based; details: not given
Sequence (Q14145 whole entry): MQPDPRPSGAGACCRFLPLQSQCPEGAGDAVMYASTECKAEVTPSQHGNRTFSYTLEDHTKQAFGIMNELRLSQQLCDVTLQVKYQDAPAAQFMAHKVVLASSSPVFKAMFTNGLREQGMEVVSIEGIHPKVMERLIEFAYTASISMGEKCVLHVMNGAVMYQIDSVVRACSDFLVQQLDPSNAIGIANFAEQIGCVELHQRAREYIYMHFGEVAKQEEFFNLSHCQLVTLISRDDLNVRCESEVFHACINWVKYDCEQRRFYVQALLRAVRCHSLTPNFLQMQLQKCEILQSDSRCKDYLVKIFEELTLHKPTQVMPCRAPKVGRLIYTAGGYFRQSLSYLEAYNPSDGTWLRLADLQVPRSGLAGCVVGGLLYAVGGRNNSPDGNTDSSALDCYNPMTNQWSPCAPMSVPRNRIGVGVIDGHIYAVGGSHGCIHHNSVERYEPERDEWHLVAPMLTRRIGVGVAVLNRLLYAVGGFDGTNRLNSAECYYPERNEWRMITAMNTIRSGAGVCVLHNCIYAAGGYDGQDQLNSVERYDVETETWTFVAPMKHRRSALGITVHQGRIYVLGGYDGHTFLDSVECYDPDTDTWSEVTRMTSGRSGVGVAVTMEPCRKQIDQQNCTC

| Activity | Structure (SMILES) |
| --- | --- |
| Active | CC1(C)CCc2c(c(Br)cc3cc(-c4ccccc4)c(=O)oc23)O1 |

molecular target: T2, Nuclear factor erythroid 2-related factor 2 (Homo sapiens) (UniProt Q16236); assay: Agonist activity at Nrf2 (unknown origin) at 10 uM by dual-luciferase reporter gene assay; details: filed as agonist
T2 sequence (whole entry): T1 sequence (Q16236 whole entry)

| fold change (FC) | Structure (SMILES) |
| --- | --- |
| 1.7 | CC(C)(C)c1cc(O)ccc1O |

molecular target: T2, Nuclear factor erythroid 2-related factor 2 (Homo sapiens); assay: Agonist activity at Nrf2 (unknown origin) at 20 uM by dual-luciferase reporter gene assay; details: filed as agonist

| fold change (FC) | Structure (SMILES) |
| --- | --- |
| 0.95 | CC(C)=CCc1c(OC(=O)NCCc2c[nH]c3ccccc23)ccc2ccc(=O)oc12 |
| 0.95 | CC(C)=CCc1c(OC(=O)NCCc2c[nH]c3ccc(C)cc23)ccc2ccc(=O)oc12 |
| 0.98 | COc1ccc2[nH]cc(CCNC(=O)Oc3ccc4ccc(=O)oc4c3CC=C(C)C)c2c1 |
| 1.51 | CC(C)=CCc1c(OC(=O)Cc2c[nH]c3ccc(C)cc23)ccc2ccc(=O)oc12 |
| 1.26 | CC1(C)CCc2c(c(Br)cc3cc(-c4ccc(F)cc4)c(=O)oc23)O1 |
| 1.51 | COc1ccc2c(CC(=O)Oc3ccc4ccc(=O)oc4c3CC=C(C)C)c[nH]c2c1 |
| 2.04 | CC1(C)CCc2c(c(Br)cc3cc(-c4ccc(C(F)(F)F)cc4)c(=O)oc23)O1 |
| 2.57 | CC1(C)CCc2c(c(Br)cc3cc(-c4ccccc4)c(=O)oc23)O1 |
| 1.18 | COc1ccc2ccc(=O)oc2c1CC=C(C)C |
| 1.51 | CC(C)=CCc1c(OC(=O)Cc2c(C)[nH]c3ccccc23)ccc2ccc(=O)oc12 |
| 1.53 | COc1ccc(-c2cc3cc(Br)c4c(c3oc2=O)CCC(C)(C)O4)cc1 |
| 1.41 | COc1cccc(-c2cc3cc(Br)c4c(c3oc2=O)CCC(C)(C)O4)c1 |
| 1.58 | COc1ccccc1-c1cc2cc(Br)c3c(c2oc1=O)CCC(C)(C)O3 |
| 1.56 | COc1ccc2[nH]c(C)c(CC(=O)Oc3ccc4ccc(=O)oc4c3CC=C(C)C)c2c1 |
| 1.55 | CC(C)=CCc1c(OC(=O)Cc2c[nH]c3ccccc23)ccc2ccc(=O)oc12 |
| 0.79 | CC(C)=CCc1c(OC(=O)NCCc2c[nH]c3ccc(Cl)cc23)ccc2ccc(=O)oc12 |
| 0.61 | CC(C)=CCc1c(OC(=O)NCCc2c(C)[nH]c3ccccc23)ccc2ccc(=O)oc12 |
| 1.69 | CC1(C)CCc2c(c(Br)cc3cc(-c4ccc(OC(F)(F)F)cc4)c(=O)oc23)O1 |
| 0.73 | COc1ccc2c(CC(C)NC(=O)Oc3ccc4ccc(=O)oc4c3CC=C(C)C)c[nH]c2c1 (centres undefined) |
| 1.52 | CC1(C)CCc2c(c(Br)cc3cc(-c4cccc(C(F)(F)F)c4)c(=O)oc23)O1 |
| 1.61 | Cc1ccc(-c2cc3cc(Br)c4c(c3oc2=O)CCC(C)(C)O4)cc1 |
| 1.65 | CC(C)=CCc1c(OC(=O)Cc2c[nH]c3cc(Cl)ccc23)ccc2ccc(=O)oc12 |
| 1.59 | COc1ccc2[nH]cc(CC(=O)Oc3ccc4ccc(=O)oc4c3CC=C(C)C)c2c1 |
| 1.41 | CC(C)=CCc1c(OC(=O)Cc2c[nH]c3ccc(Br)cc23)ccc2ccc(=O)oc12 |

molecular target: Keap1/Nrf2 (Homo sapiens) (UniProt Q16236+Q14145); assay: Inhibition of Keap1-Nrf2 protein-protein interaction in human A549 cells assessed as reduction in Nrf2 ubiquitination by immunoprecipitation analysis; type: cell-based; details: not given
Sequence (Q14145 whole entry, looked up, one chain of several): as the sequence (Q14145 whole entry) above

| inhibition | Structure (SMILES) |
| --- | --- |
| Active | CC1(C)CCc2c(c(Br)cc3cc(-c4ccccc4)c(=O)oc23)O1 |
